Among the test systems are COLO 205 colon; BT-549 breast; SK-MEL-28 melanoma; NCI/ADR-RES ovarian; SW-620 colon; HL-60(TB) leukemia; OVCAR-3 ovarian; SNB-75 CNS; OVCAR-8 ovarian; NCI-H522 lung.
Assay in all cases: growth of human tumour cells (NCI), 48 h

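Five concentrations, 48 hours, 96-well plates. Here, GI50 denotes the concentration required for 50% inhibition of growth. TGI: total growth inhibition.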

Turning to `Cc1ccc2c(c1)c1nc3cc(C)c(C)cc3nc1n2CCN(C)C`, the GI50 was 1.24 µM in the assay on COLO 205 colon; 2.46 µM with BT-549 breast; 2.55 µM in the assay with SK-MEL-28 melanoma; 1.15 µM in the assay on NCI/ADR-RES ovarian; 1.13 µM with SW-620 colon; 2.95 µM with HL-60(TB) leukemia. Moreover, the GI50 is 2.37 µM in the assay with OVCAR-3 ovarian, 1.5 µM in the assay with SNB-75 CNS, 1.73 µM in the assay on OVCAR-8 ovarian and 1.54 µM in the assay on NCI-H522 lung. Moreover, the TGI was determined as 4.6 µM with COLO 205 colon; 9.05 µM in the assay with BT-549 breast; 5.46 µM in the assay on SK-MEL-28 melanoma; 5.42 µM in the assay on NCI/ADR-RES ovarian; 5.46 µM in the assay on SW-620 colon; 9.65 µM in the assay with HL-60(TB) leukemia. Moreover, the TGI in the assay on OVCAR-3 ovarian was determined as 6.59 µM; with SNB-75 CNS, 6.41 µM; in the assay on OVCAR-8 ovarian, 8.29 µM; with NCI-H522 lung, 5.58 µM.
`CCCCCCc1cc2cc(-c3nc4ccccc4[nH]3)c(=Nc3ccccc3C)oc2cc1O`: the GI50 is > 100 µM in the assay on COLO 205 colon; 1.83 µM in the assay with BT-549 breast; 1.88 µM in the assay with SK-MEL-28 melanoma; 4.24 µM in the assay with NCI/ADR-RES ovarian; 2.04 µM in the assay with SW-620 colon; 2.13 µM in the assay with HL-60(TB) leukemia. Besides, the GI50 with OVCAR-3 ovarian is 1.77 µM; in the assay on SNB-75 CNS it was 1.41 µM; in the assay on OVCAR-8 ovarian, 2.26 µM; in the assay on NCI-H522 lung it was 2.11 µM. For the same compound, the TGI was > 100 µM with COLO 205 colon; 3.55 µM with BT-549 breast; 3.73 µM in the assay with SK-MEL-28 melanoma; 22.7 µM in the assay with NCI/ADR-RES ovarian; 4.91 µM in the assay on SW-620 colon; 4.52 µM in the assay with HL-60(TB) leukemia. For the same compound, the TGI in the assay with OVCAR-3 ovarian was 3.28 µM; with SNB-75 CNS it was 3.49 µM; in the assay on OVCAR-8 ovarian, 6.05 µM; with NCI-H522 lung, 5.11 µM.
With `COc1cc(-c2nc3sccn3c2-c2ccnc(NCCNS(=O)(=O)c3ccc(Cl)cc3)n2)ccc1F`, the GI50 in the assay with COLO 205 colon is 3.48 µM; in the assay on BT-549 breast, 2.61 µM; in the assay with SK-MEL-28 melanoma, 4.37 µM; in the assay on NCI/ADR-RES ovarian, 2.89 µM; in the assay on SW-620 colon, 10.8 µM; in the assay on HL-60(TB) leukemia, 3.74 µM. The GI50 with OVCAR-3 ovarian is 4.94 µM; in the assay on SNB-75 CNS, 4.48 µM; in the assay on OVCAR-8 ovarian, 2.71 µM; with NCI-H522 lung, 2.59 µM. Besides, the TGI with COLO 205 colon, in the assay with BT-549 breast, in the assay on SK-MEL-28 melanoma, with NCI/ADR-RES ovarian, in the assay with SW-620 colon and in the assay on HL-60(TB) leukemia was > 100 µM each time. For the same compound, the TGI in the assay on OVCAR-3 ovarian, with SNB-75 CNS, in the assay with OVCAR-8 ovarian and with NCI-H522 lung was > 100 µM each time.
For `CCCCOc1ccc(NC(=O)n2nc(N)c3ccccc32)cc1`, the GI50 is 18 µM in the assay with COLO 205 colon; 17.6 µM in the assay on BT-549 breast; 28.3 µM with SK-MEL-28 melanoma; 23.9 µM in the assay with NCI/ADR-RES ovarian; 19 µM in the assay with SW-620 colon; 0.813 µM in the assay with HL-60(TB) leukemia. Besides, the GI50 in the assay on OVCAR-3 ovarian was 19 µM; in the assay with SNB-75 CNS it was 29.6 µM; with OVCAR-8 ovarian, 30.3 µM; with NCI-H522 lung, 23.9 µM. For the same compound, the TGI with COLO 205 colon was 41 µM; with BT-549 breast, 37 µM; in the assay on SK-MEL-28 melanoma, > 90.5 µM; with NCI/ADR-RES ovarian, 71.1 µM; with SW-620 colon it was 37.2 µM; in the assay on HL-60(TB) leukemia, 21 µM. Also, the TGI with OVCAR-3 ovarian was 42.2 µM; with SNB-75 CNS, 82.4 µM; with OVCAR-8 ovarian it was > 85.9 µM; in the assay on NCI-H522 lung, > 89.1 µM.
Consider `COc1cc2cc(C(=O)CCC(=O)O)sc2cc1OC`, for which the GI50 in the assay on COLO 205 colon was > 100 µM; in the assay on BT-549 breast, > 100 µM; in the assay with SK-MEL-28 melanoma, > 100 µM; in the assay with NCI/ADR-RES ovarian it was > 100 µM; with SW-620 colon, > 100 µM; with HL-60(TB) leukemia it was 28.3 µM. Also, the GI50 in the assay on OVCAR-3 ovarian was > 100 µM; with SNB-75 CNS it was 12.7 µM; in the assay with OVCAR-8 ovarian, > 100 µM; in the assay with NCI-H522 lung it was > 100 µM. Also, the TGI in the assay with COLO 205 colon, in the assay on BT-549 breast, with SK-MEL-28 melanoma, in the assay with NCI/ADR-RES ovarian, in the assay with SW-620 colon and with HL-60(TB) leukemia was > 100 µM in each case. Also, the TGI in the assay on OVCAR-3 ovarian, with SNB-75 CNS, in the assay on OVCAR-8 ovarian and with NCI-H522 lung was > 100 µM each time.
As for `Cc1nc(-c2ccccc2)c(Cc2ccccc2O)c(=O)[nH]1`, the TGI in the assay on COLO 205 colon, in the assay with BT-549 breast, in the assay on SK-MEL-28 melanoma, in the assay with NCI/ADR-RES ovarian, in the assay with SW-620 colon and in the assay on HL-60(TB) leukemia was > 100 µM each time. The TGI with OVCAR-3 ovarian was > 100 µM; in the assay with SNB-75 CNS it was 97.9 µM; in the assay with OVCAR-8 ovarian it was > 100 µM; in the assay with NCI-H522 lung, > 100 µM.
For `CC(C)c1c(C(=O)Nc2ccccc2)c(-c2ccccc2)c(-c2ccc(F)cc2)n1CC[C@@H]1CC=CC(=O)O1`, the GI50 is 1.68 µM in the assay with COLO 205 colon; 1.6 µM in the assay on BT-549 breast; 1.69 µM in the assay with SK-MEL-28 melanoma; 2.46 µM in the assay with NCI/ADR-RES ovarian; 1.71 µM with SW-620 colon; 1.24 µM in the assay with HL-60(TB) leukemia. The GI50 was 1.8 µM with OVCAR-3 ovarian, 1.43 µM in the assay on SNB-75 CNS, 2.23 µM with OVCAR-8 ovarian and 1.5 µM in the assay with NCI-H522 lung. In addition, the TGI in the assay on COLO 205 colon is 3.5 µM; with BT-549 breast, 3.46 µM; in the assay with SK-MEL-28 melanoma, 3.14 µM; in the assay on NCI/ADR-RES ovarian, 6.09 µM; in the assay with SW-620 colon it was 3.52 µM; with HL-60(TB) leukemia, 6.42 µM. Also, the TGI in the assay on OVCAR-3 ovarian was determined as 3.31 µM; in the assay with SNB-75 CNS, 2.78 µM; in the assay with OVCAR-8 ovarian, 5.23 µM; with NCI-H522 lung it was 2.98 µM.
In the case of `N#Cc1ncc(-c2ccc(C(F)(F)F)cc2)c(NCc2cc(C(F)(F)F)cc(C(F)(F)F)c2)n1`, the GI50 was 2.24 µM with COLO 205 colon; 5.88 µM in the assay with BT-549 breast; 5.17 µM in the assay with SK-MEL-28 melanoma; 3.23 µM in the assay with NCI/ADR-RES ovarian; 3.13 µM in the assay with SW-620 colon; 2.36 µM with HL-60(TB) leukemia. Moreover, the GI50 in the assay with OVCAR-3 ovarian is 3.8 µM; with SNB-75 CNS it was 3.19 µM; in the assay with OVCAR-8 ovarian, 3.69 µM; in the assay on NCI-H522 lung, 2.92 µM. Further, the TGI in the assay with COLO 205 colon is 4.57 µM; in the assay with BT-549 breast it was > 100 µM; in the assay on SK-MEL-28 melanoma, > 100 µM; with NCI/ADR-RES ovarian, 65.8 µM; in the assay on SW-620 colon it was > 100 µM; in the assay on HL-60(TB) leukemia it was 5.76 µM. Besides, the TGI in the assay with OVCAR-3 ovarian is 22.7 µM; in the assay with SNB-75 CNS, 68.8 µM; in the assay on OVCAR-8 ovarian, > 100 µM; with NCI-H522 lung, 9.86 µM.
